Reference: US12433903B2 (priority 2021, dated 2025)

Key:
[1] = tested on: cryopreserved hepatocytes; experiment: Hepatocyte stability and metabolite profiling, minipig; assay type: in vitro ADME; conditions: minipig hepatocyte samples, 40 and 120 minute
Method: The objective of this study was to investigate the stability of the test compound, CBG, in human, rat, dog, mouse, monkey and minipig cryopreserved hepatocytes. Follow-on metabolite profiling was performed.
CBG was incubated up to 2 hr with cryopreserved hepatocytes. Cryopreserved hepatocytes in suspension were added to test compound in supplemented media following pre-incubation to initiate the reaction and the reactions were stopped by organic solvent at the appropriate time points. The termination plates were centrifuged and sample supernatants were analysed using Cyprotex generic LC MS/MS conditions to generate intrinsic clearance values for CBG. Two control compounds for each species were included in the assay and if the values for these compounds were not within the specified limits the results were rejected and the experiment repeated.
Following the hepatocyte stability assay the samples were 59 tilized for metabolite profiling using suitable high-resolution LC-MS/MS conditions. The 40 and 60 minute human samples, 20 and 120 minute rat samples, 10 and 20 minute dog and monkey samples, 20 and 60 minute mouse samples, and 40 and 120 minute minipig samples were compared against the 0 minute control sample to establish which and how many metabolites were formed. […]
The areas and percentages reported for the parent and metabolites were calculated using the XIC data. […]

[2] = target: T1, rUGT1A9 (Homo sapiens, UniProt O60656); experiment: Inhibition of CBG glucuronidation by Compound 1, rUGT1A9; assay type: in vitro ADME; conditions: for CBG detected (CBG loss) / CBG detected, Percent of control / CBG glucuronide formed / CBG glucuronide formed, Percent of control: 4 min
T1 sequence (O60656 26-530): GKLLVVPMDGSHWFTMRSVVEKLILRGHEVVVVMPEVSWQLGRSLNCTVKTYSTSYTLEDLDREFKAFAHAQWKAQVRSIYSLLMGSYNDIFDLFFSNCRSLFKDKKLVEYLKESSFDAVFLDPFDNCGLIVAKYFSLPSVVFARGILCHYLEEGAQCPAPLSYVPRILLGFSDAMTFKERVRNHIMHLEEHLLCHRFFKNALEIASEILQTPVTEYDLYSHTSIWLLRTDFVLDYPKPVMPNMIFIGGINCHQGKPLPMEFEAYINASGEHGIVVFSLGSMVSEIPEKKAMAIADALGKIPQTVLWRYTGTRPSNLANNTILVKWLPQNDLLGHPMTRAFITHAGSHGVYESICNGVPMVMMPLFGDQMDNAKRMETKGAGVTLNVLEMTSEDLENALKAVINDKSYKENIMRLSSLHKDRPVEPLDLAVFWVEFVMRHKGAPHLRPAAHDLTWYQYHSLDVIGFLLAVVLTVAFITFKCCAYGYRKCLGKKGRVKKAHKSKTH
Method: The purpose of this experiment was to determine if Compound 1 can inhibit the glucuronidation of CBG, as both are substrates for the two major isoforms responsible for CBG glucuronidation.
The ability of Compound 1 to inhibit the metabolism of CBG by UGT1A9 and UGT2B7 enzymes was investigated to ascertain the IC50 values for direct inhibition. The incubation conditions (substrate concentration, incubation time and protein concentration) were determined in Part 2 of the protocol such that CBG metabolism remains near initial rate conditions (e.g., 20-30% substrate loss).
Preliminary experiments were conducted in Part I of the protocol, first to establish the HPLC/MS/MS bioanalytical methods for CBG and CBG glucuronide. […] The second set of preliminary experiments (Part 2), as mentioned, were conducted to optimize the incubation conditions as described above. Incubations (at 37° C.) contained Tris-HCl buffer (100 mM, pH 7.7), MgCl2 (10 mM), EDTA (1 mM, pH 7.4) and UDP-glucuronic acid (UDPGA, 10 mM). CBG was added to each incubation in DMSO such that the final percent of DMSO was 1% v/v, or less. Reactions were terminated by the addition of an equal volume of stop reagent, acetonitrile containing an internal standard. The samples were centrifuged (e.g., 920 RCF for 10 minutes at 10° C.), and the supernatant fractions were analyzed by LC-MS/MS to determine the amount of CBG remaining and formation of one metabolite (CBG glucuronide).
To examine its ability to act as a direct inhibitor of the above listed enzymes, Compound 1 was be added to recombinant human UGT enzyme together with CBG. Reactions were initiated with UDPGA and were carried out in duplicate. For all assays, reactions were terminated by the addition of acetonitrile with or without 2% v/v formic acid, including the internal standard.
Authentic metabolite reference standards were used for quantitation of the probe substrate metabolites and as internal standards. Based on the information obtained in the Part 2 experiments, the following table summarizes the experiments performed, assessing the inhibitory effects of Compound 1 was conducted as follows:
The amounts of CBG present at the end of the incubation periods was determined. For inhibition to have occurred, the amounts of CBG present at the end of the incubation period needed to increase, and the amounts of glucuronide formed needed to decrease.

CCCCCc1cc(O)c(C/C=C(\C)CCC=C(C)C)c(O)c1 [CBG, cannabigerol]
metabolites observed (number) [1]: four

CCCCCc1cc(O)c(C/C=C(\C)CCC=C(C)C)c(OC)c1 [Compound 1, (E)-2-(3,7-dimethylocta-2,6-dien-1-yl)-3-methoxy-5-pentylphenol]
CBG detected (CBG loss) ([2]; 10 μM CBG + 0.01 μM Compound 1): 1250 pmol | CBG detected, Percent of control ([2]; 10 μM CBG + 0.01 μM Compound 1): 109 | CBG glucuronide formed ([2]; 10 μM CBG + 0.01 μM Compound 1): 350000 area ratio | CBG glucuronide formed, Percent of control ([2]; 10 μM CBG + 0.01 μM Compound 1): 94.4 | CBG detected (CBG loss) ([2]; 10 μM CBG + 0.03 μM Compound 1): 1250 pmol | CBG detected, Percent of control ([2]; 10 μM CBG + 0.03 μM Compound 1): 110 | CBG glucuronide formed ([2]; 10 μM CBG + 0.03 μM Compound 1): 360000 area ratio | CBG glucuronide formed, Percent of control ([2]; 10 μM CBG + 0.03 μM Compound 1): 97.1 | CBG detected (CBG loss) ([2]; 10 μM CBG + 0.1 μM Compound 1): 1280 pmol | CBG detected, Percent of control ([2]; 10 μM CBG + 0.1 μM Compound 1): 112 | CBG glucuronide formed, Percent of control ([2]; 10 μM CBG + 0.1 μM Compound 1): 92.0 | CBG detected (CBG loss) ([2]; 10 μM CBG + 0.3 μM Compound 1): 1300 pmol | CBG detected, Percent of control ([2]; 10 μM CBG + 0.3 μM Compound 1): 114 | CBG glucuronide formed ([2]; 10 μM CBG + 0.3 μM Compound 1): 350000 area ratio | CBG glucuronide formed, Percent of control ([2]; 10 μM CBG + 0.3 μM Compound 1): 94.4 | CBG detected (CBG loss) ([2]; 10 μM CBG + 1 μM Compound 1): 1210 pmol | CBG detected, Percent of control ([2]; 10 μM CBG + 1 μM Compound 1): 106 | CBG glucuronide formed, Percent of control ([2]; 10 μM CBG + 1 μM Compound 1): 92.6 | CBG detected (CBG loss) ([2]; 10 μM CBG + 3 μM Compound 1): 1200 pmol | CBG detected, Percent of control ([2]; 10 μM CBG + 3 μM Compound 1): 105 | CBG glucuronide formed, Percent of control ([2]; 10 μM CBG + 3 μM Compound 1): 93.6 | CBG detected (CBG loss) ([2]; 10 μM CBG + 10 μM Compound 1): 1140 pmol | CBG detected, Percent of control ([2]; 10 μM CBG + 10 μM Compound 1): 99.8 | CBG glucuronide formed, Percent of control ([2]; 10 μM CBG + 10 μM Compound 1): 92.8 | metabolism of CBG in the presence of Compound 1 (in words) ([2]; 0.01-10 μM Compound 1, CBG disappearance or glucuronide formation): essentially unchanged
